Publication PMC4861610 (Drug Design, Development and Therapy, 2016)
One block for each compound: values may come before it.

Assays:
[1] = MTT cytotoxicity assay, normal liver HL7702 cells; assay type: cell-based, human; conditions: human, HL7702 normal liver cells
EGFR = EGFR (Homo sapiens, UniProt P00533); experiment: LANCE Ultra TR-FRET kinase selectivity assay, EGFR; assay type: biochemical
FGFR3 = FGFR3 (Homo sapiens, UniProt P22607); experiment: LANCE Ultra TR-FRET kinase selectivity assay, FGFR3; assay type: biochemical
FGFR2 = FGFR2 (Homo sapiens, UniProt P21802); experiment: LANCE Ultra TR-FRET kinase selectivity assay, FGFR2; assay type: biochemical
PDGFR-β = PDGFR-β (Homo sapiens, UniProt P09619); experiment: LANCE Ultra TR-FRET kinase selectivity assay, PDGFR-β; assay type: biochemical
FGFR1 kinase = FGFR1 kinase (Homo sapiens, UniProt P11362); experiment: LANCE Ultra TR-FRET kinase assay, FGFR1; assay type: biochemical; conditions: for Selectivity ratio: ratio of the second lowest IC50 against the lowest IC50 value among FLT3, FGFR1-3, PDGFR-β, EGFR
FLT3 = molecular target: T1, FLT3 (Homo sapiens, UniProt P36888); experiment: LANCE Ultra TR-FRET kinase selectivity assay, FLT3; assay type: biochemical
T1 sequence (P36888 27-993): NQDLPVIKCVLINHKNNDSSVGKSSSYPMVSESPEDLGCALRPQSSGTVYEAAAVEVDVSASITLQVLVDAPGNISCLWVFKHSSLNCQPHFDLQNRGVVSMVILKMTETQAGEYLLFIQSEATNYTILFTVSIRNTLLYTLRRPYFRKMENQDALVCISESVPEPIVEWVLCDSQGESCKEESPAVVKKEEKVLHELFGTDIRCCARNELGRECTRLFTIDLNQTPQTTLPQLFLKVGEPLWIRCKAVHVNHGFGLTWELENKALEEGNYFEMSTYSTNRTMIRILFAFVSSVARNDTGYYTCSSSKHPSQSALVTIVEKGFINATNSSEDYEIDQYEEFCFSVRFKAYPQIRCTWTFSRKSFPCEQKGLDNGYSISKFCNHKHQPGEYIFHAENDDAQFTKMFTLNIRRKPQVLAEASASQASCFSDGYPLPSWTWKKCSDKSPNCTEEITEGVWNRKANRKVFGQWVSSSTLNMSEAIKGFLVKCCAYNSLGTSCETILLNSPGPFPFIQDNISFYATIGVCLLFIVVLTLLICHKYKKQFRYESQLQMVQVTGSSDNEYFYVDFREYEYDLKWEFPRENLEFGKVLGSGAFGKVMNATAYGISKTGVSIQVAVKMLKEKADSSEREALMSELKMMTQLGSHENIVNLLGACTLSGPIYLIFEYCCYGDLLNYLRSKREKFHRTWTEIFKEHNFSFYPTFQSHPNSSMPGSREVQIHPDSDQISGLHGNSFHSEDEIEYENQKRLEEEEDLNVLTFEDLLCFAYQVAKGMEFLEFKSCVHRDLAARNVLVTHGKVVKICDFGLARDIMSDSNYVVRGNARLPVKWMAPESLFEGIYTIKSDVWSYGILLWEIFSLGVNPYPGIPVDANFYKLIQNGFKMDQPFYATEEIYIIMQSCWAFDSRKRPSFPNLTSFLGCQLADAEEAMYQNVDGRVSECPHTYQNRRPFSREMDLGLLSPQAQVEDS

HL7702 cells = experiment: MTT cytotoxicity assay, normal liver HL7702 cells; assay type: cell-based, human; conditions: 2 and 10 µM, Figure 5A and B

Chain of FGFR1 kinase (P11362 478-767 limits assumed): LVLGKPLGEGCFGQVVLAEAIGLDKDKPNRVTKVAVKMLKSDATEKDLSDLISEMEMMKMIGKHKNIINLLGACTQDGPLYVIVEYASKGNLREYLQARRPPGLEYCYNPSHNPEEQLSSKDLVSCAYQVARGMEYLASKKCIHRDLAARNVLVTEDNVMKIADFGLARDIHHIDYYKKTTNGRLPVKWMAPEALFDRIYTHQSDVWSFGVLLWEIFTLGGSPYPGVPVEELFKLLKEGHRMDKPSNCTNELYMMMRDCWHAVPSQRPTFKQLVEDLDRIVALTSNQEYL
Chain of PDGFR-β (P09619 33-1106, species assumed): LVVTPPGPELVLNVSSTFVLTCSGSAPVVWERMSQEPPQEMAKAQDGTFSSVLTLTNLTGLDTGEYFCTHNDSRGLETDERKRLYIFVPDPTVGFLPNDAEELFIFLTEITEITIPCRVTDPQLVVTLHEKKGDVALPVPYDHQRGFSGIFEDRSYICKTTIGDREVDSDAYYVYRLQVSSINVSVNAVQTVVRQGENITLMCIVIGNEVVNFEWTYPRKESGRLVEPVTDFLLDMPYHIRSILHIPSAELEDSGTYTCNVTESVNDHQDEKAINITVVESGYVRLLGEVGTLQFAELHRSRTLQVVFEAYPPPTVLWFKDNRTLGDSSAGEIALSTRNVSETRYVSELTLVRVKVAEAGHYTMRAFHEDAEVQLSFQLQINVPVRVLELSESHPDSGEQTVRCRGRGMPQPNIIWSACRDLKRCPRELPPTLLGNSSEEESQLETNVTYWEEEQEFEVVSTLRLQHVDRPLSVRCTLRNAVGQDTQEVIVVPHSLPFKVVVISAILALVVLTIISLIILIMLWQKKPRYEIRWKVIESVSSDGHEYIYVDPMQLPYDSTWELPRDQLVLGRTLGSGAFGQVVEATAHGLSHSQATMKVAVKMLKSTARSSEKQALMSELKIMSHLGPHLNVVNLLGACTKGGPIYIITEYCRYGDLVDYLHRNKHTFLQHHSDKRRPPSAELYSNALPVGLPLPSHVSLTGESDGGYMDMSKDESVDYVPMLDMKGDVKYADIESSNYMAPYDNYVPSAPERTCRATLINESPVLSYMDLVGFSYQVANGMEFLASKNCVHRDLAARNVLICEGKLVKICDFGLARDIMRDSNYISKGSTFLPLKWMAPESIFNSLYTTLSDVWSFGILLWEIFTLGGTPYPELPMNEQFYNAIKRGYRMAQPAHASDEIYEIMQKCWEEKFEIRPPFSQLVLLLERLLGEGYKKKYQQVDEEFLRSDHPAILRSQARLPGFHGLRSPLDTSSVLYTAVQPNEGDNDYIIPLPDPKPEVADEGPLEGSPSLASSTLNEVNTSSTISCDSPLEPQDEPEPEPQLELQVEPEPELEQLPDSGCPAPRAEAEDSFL
Chain of FGFR3 (P22607 23-806, species assumed): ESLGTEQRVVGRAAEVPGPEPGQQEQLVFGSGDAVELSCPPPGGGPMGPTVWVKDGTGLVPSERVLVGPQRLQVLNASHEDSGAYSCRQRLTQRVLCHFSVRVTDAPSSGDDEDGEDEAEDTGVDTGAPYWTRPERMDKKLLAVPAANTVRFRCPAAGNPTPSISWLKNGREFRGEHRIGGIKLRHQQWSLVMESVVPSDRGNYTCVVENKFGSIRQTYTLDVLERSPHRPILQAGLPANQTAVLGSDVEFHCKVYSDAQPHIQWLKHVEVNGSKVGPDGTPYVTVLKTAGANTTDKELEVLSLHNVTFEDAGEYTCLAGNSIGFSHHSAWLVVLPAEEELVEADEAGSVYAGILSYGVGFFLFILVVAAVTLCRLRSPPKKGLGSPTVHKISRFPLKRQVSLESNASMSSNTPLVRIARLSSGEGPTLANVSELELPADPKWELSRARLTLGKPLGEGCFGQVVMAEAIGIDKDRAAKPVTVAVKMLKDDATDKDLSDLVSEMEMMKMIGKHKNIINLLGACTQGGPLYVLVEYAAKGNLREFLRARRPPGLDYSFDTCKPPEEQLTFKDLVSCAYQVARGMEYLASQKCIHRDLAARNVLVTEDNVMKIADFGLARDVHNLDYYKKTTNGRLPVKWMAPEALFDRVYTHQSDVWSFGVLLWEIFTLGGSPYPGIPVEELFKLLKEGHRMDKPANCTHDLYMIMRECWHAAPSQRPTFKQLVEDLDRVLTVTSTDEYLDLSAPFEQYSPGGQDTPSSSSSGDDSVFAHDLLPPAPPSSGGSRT
Chain of EGFR (P00533 25-1210, species assumed): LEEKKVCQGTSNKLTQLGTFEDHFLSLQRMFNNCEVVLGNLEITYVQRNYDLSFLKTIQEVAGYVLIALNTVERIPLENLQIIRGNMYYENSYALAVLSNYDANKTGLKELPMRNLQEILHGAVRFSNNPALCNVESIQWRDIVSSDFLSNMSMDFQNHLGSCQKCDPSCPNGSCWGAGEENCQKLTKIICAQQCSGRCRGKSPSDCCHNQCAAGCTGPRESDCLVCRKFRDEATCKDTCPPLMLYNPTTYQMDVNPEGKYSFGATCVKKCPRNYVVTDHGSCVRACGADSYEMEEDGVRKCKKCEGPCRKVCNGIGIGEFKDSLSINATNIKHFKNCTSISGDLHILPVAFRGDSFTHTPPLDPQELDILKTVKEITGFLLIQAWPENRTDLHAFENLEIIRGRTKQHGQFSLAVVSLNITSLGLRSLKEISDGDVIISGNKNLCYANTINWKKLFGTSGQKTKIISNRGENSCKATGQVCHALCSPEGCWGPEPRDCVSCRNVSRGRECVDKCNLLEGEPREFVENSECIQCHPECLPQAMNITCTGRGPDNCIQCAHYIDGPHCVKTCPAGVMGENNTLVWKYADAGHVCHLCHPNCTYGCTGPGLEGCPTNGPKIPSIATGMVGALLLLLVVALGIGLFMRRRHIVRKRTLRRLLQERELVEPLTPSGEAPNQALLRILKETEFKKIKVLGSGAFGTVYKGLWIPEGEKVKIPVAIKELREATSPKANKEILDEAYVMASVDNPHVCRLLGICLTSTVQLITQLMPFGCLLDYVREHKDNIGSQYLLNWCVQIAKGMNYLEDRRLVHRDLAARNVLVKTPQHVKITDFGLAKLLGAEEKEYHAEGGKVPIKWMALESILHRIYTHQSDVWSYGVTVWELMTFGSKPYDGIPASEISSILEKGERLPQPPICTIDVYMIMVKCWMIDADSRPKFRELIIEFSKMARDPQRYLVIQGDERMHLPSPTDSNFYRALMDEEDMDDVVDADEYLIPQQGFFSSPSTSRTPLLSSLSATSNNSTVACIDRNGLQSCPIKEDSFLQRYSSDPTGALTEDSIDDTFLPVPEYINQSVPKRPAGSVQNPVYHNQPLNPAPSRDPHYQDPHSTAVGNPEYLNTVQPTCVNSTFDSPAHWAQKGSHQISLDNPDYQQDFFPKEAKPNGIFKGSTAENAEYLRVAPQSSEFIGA
Chain of FGFR2 (P21802 22-821, species assumed): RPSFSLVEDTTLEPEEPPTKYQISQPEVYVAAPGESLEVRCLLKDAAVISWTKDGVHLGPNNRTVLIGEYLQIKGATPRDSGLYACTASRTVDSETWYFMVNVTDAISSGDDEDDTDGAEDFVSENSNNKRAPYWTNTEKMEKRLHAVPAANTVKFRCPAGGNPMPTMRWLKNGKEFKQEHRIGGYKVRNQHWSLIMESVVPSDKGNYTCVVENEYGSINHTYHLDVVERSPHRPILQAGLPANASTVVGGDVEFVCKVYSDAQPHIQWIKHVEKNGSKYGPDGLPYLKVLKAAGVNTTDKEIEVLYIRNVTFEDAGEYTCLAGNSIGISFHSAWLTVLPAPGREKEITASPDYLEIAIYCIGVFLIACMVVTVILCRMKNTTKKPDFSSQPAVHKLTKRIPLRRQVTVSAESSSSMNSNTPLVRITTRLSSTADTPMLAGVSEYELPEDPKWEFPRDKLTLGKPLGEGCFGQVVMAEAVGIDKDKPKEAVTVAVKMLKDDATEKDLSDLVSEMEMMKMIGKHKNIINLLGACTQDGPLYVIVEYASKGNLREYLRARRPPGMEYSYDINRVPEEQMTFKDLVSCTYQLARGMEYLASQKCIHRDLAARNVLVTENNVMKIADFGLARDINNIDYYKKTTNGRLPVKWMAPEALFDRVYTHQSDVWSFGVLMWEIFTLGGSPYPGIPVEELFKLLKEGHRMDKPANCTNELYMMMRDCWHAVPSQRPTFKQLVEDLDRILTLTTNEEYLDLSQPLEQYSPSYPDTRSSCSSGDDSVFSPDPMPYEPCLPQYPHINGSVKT

SMILES: O=c1[nH]c2ccccc2nc1/C=C/c1ccc(C(F)(F)F)cc1 [A11, (E)-1,2-Dihydro-3-[2-(4-trifluoromethylphenyl)ethenyl]-quinoxalin-2-one]
IC50 at 72 h [1]: > 100 µM

SMILES: COc1cccc(/C=C/c2nc3ccccc3[nH]c2=O)c1OC [A9, (E)-1,2-Dihydro-3-[2-(2,3-dimethoxyphenyl)ethenyl]-quinoxalin-2-one]
IC50 at 72 h [1]: > 100 µM

IC50 (EGFR): > 100 µM
IC50 (FGFR3): 75.1 ± 2.56 µM
IC50 (FGFR2): > 100 µM
IC50 (PDGFR-β): 55.4 ± 1.72 µM
IC50 (FGFR1 kinase): 21.5 ± 2.24 µM
Selectivity ratio (FGFR1 kinase): 2.57
IC50 (FLT3): > 100 µM
SMILES: O=c1[nH]c2ccccc2nc1/C=C/c1ccccc1Cl [A2, (E)-1,2-Dihydro-3-[2-(2-chlorophenyl)ethenyl]-quinoxalin-2-one]
IC50 at 72 h [1]: 41.5 ± 7.56 µM

SMILES: Cn1c(=O)c(/C=C/c2ccccc2)nc2ccccc21 [B1, (E)-1,2-Dihydro-1-methyl-3-(2-phenylethenyl)-quinoxalin-2-one]
IC50 at 72 h [1]: > 100 µM

IC50 (EGFR): > 100 µM
IC50 (FGFR2): > 100 µM
IC50 (PDGFR-β): > 100 µM
Selectivity ratio (FGFR1 kinase): 3.68
IC50 (FLT3): > 100 µM
SMILES: O=c1c(/C=C/c2ccccc2Cl)nc2ccccc2n1Cc1ccccc1 [C2, (E)-3-[2-(2-Chlorophenyl)ethenyl]-1,2-dihydro-1-phenylmethyl-quinoxalin-2-one]
IC50 at 72 h [1]: > 100 µM

SMILES: CN1CCN(c2ccc3nc(-c4c(N)c5c(F)cccc5[nH]c4=O)[nH]c3c2)CC1 [TKI258, reference compound]
IC50 at 72 h [1]: 32.8 ± 2.38 µM

SMILES: O=c1[nH]c2ccccc2nc1/C=C/c1ccccc1[N+](=O)[O-] [A10, (E)-1,2-Dihydro-3-[2-(2-nitrophenyl)ethenyl]-quinoxalin-2-one]
IC50 at 72 h [1]: 68.2 ± 5.96 µM

SMILES: O=c1c(/C=C/c2ccccc2F)nc2ccccc2n1Cc1ccccc1 [C4, (E)-3-[2-(2-Fluorophenyl)ethenyl]-1,2-dihydro-1-phenylmethyl-quinoxalin-2-one]
IC50 at 72 h [1]: > 100 µM

IC50 (EGFR): > 100 µM
IC50 (FGFR3): 89.6 ± 3.32 µM
IC50 (FGFR2): > 100 µM
IC50 (PDGFR-β): > 100 µM
IC50 (FGFR1 kinase): 23.2 ± 1.12 µM
Selectivity ratio (FGFR1 kinase): 3.86
IC50 (FLT3): > 100 µM
SMILES: O=c1[nH]c2ccccc2nc1/C=C/c1ccccc1 [A1, (E)-1,2-Dihydro-3-(2-phenylethenyl) quinoxalin-2-one]
IC50 at 72 h [1]: > 100 µM

SMILES: O=c1c(/C=C/c2ccccc2)nc2ccccc2n1Cc1ccccc1 [C1, (E)-1,2-Dihydro-3-(2-phenylethenyl)-1-phenylmethyl-quinoxalin-2-one]
IC50 at 72 h [1]: > 100 µM

SMILES: Oc1nc2ccccc2nc1/C=C/c1ccc(F)cc1 [A4, (E)-3-[2-(4-Fluorophenyl)ethenyl]-1,2-dihydro-quinoxalin-2-one]
IC50 at 72 h [1]: 67.9 ± 1.94 µM

SMILES: CN1CCN(c2nc3ccccc3nc2/C=C/c2ccccc2F)CC1 [D3, (E)-2-(4-Methylpiperazin-1-yl)-3-[2-(2-fluorophenyl)ethenyl]-quinoxalin]
IC50 at 72 h [1]: > 100 µM

SMILES: O=c1c(/C=C/c2ccccn2)nc2ccccc2n1Cc1ccccc1 [C5, (E)-3-[2-(Pyridine-2-yl)ethenyl]-1,2-dihydro-1-phenylmethyl-quinoxalin-2-one]
IC50 at 72 h [1]: 35.8 ± 2.17 µM

IC50 (EGFR): > 100 µM
IC50 (FGFR3): > 100 µM
IC50 (FGFR2): > 100 µM
IC50 (PDGFR-β): > 100 µM
IC50 (FGFR1 kinase): 26.1 ± 1.32 µM
IC50 (FLT3): > 100 µM
SMILES: Cn1c(=O)c(/C=C/c2ccccc2Cl)nc2ccccc21 [B2, (E)-3-[2-(2-Chlorophenyl)ethenyl]-1,2-dihydro-1-methyl-quinoxalin-2-one]
IC50 at 72 h [1]: > 100 µM

SMILES: Cn1c(=O)c(/C=C/c2ccc(F)cc2)nc2ccccc21 [B4, (E)-1,2-Dihydro-3-[2-(4-fluorophenyl)ethenyl]-1-methyl-quinoxalin-2-one]
IC50 at 72 h [1]: > 100 µM

SMILES: Cn1c(=O)c(/C=C/c2ccccc2Br)nc2ccccc21 [B3, (E)-3-[2-(2-Bromophenyl)ethenyl]-1,2-dihydro-1-methyl-quinoxalin-2-one]
IC50 at 72 h [1]: 49 ± 1.31 µM

SMILES: O=c1[nH]c2ccccc2nc1/C=C/c1ccc2ccccc2c1 [A13, (E)-1,2-Dihydro-3-[2-(naphth-2-yl)ethenyl]-quinoxalin-2-one]
IC50 at 72 h [1]: > 100 µM

SMILES: O=c1[nH]c2ccccc2nc1/C=C/c1ccccc1F [A6, (E)-3-[2-(2-Fluorophenyl)ethenyl]-1,2-dihydro-quinoxalin-2-one]
IC50 at 72 h [1]: > 100 µM

SMILES: O=c1[nH]c2ccccc2nc1/C=C/c1ccco1 [A8, (E)-3-[2-(Furan-2-yl)ethenyl]-1,2-dihydro-quinoxalin-2-one]
IC50 at 72 h [1]: > 100 µM

SMILES: O=c1c(/C=C/c2ccccc2Br)nc2ccccc2n1Cc1ccccc1 [C3, (E)-3-[2-(2-Bromophenyl)ethenyl]-1,2-dihydro-1-phenylmethyl-quinoxalin-2-one]
IC50 at 72 h [1]: > 100 µM

SMILES: Fc1ccccc1/C=C/c1nc2ccccc2nc1Cl [D1, (E)-2-Chloro-3-[2-(2-fluorophenyl)ethenyl]-quinoxalin]
IC50 at 72 h [1]: 40.2 ± 1.85 µM

SMILES: O=c1[nH]c2ccccc2nc1/C=C/c1cccs1 [A7, (E)-3-[2-(Thiophene-2-yl)ethenyl]-1,2-dihydro-quinoxalin-2-one]
IC50 at 72 h [1]: 83.2 ± 8.12 µM

SMILES: O=c1[nH]c2ccccc2nc1/C=C/c1ccccn1 [A5, (E)-3-[2-(Pyridine-2-yl)ethenyl]-1,2-dihydro-quinoxalin-2-one]
IC50 (EGFR): > 100 µM
IC50 (FGFR3): > 100 µM
survival rate of HL7702 cells compared with TKI258 (HL7702 cells): higher survival rate
IC50 at 72 h [1]: > 100 µM
IC50 (FGFR2): > 100 µM
IC50 (PDGFR-β): > 100 µM
inhibition ratio of FGFR1 (FGFR1 kinase; at 10.0 µM): 79.33%
IC50 (FLT3): > 100 µM

IC50 (EGFR): > 100 µM
IC50 (FGFR3): > 100 µM
IC50 (FGFR2): > 100 µM
IC50 (PDGFR-β): 89.5 ± 3.56 µM
IC50 (FLT3): > 100 µM
SMILES: Cn1c(=O)c(/C=C/c2ccccn2)nc2ccccc21 [B5, (E)-3-[2-(Pyridine-2-yl)ethenyl]-1,2-dihydro-1-methyl-quinoxalin-2-one]
